Our source for the logP values is ChEMBL document CHEMBL1944551, “An integrated computational workflow for efficient and quantitative modeling of renin inhibitors” (Bioorg Med Chem, 2012).

This data set can be described thus: physchem. The conditions noted are these: octanol/buffer.

Turning to `Cc1cc(Cl)c(OCCOc2ccc(N3C(=O)CNC[C@@H]3C(=O)N(Cc3cccc(C)c3C)C3CC3)cc2)c(Cl)c1`, the logP worked out at 5.83.
Consider `O=C([C@H]1CNCC(=O)N1c1ccc(OCCCOCc2ccccc2)cc1)N(Cc1cccc(Cl)c1Cl)C1CC1`, for which the logP is 5.7.
As for `COCCCc1cc(CN(C(=O)[C@H]2CNCC(=O)N2c2ccc(COC(=O)c3ccccc3)cc2)C2CC2)c(Cl)c[n+]1[O-]`, the logP is 4.33.
For `CNC(=O)OCc1ccc(Cl)c(CN(C(=O)[C@H]2CNCC(=O)N2c2ccc(OCCCOCc3ccccc3OC)cc2)C2CC2)c1` the value was 4.81.
For `Cc1cc(Cl)c(OCCOc2ccc(N3C(=O)CNC[C@@H]3C(=O)N(C)Cc3ccccc3Cl)cn2)c(Cl)c1` the value was 4.35.
For `CN(CCc1ccccc1)C(=O)[C@H]1CNCC(=O)N1c1ccc(CCCOc2c(F)ccc(F)c2F)cc1` the value was 4.57; for `CNC(=O)OCc1ccc(Cl)c(CN(C(=O)[C@H]2CNCC(=O)N2c2ccc(OCCOc3c(Cl)cc(C)cc3Cl)cc2)C2CC2)c1`, 5.58; for `O=C(OCc1ccc(N2C(=O)CNC[C@@H]2C(=O)N(Cc2cc(CNC(=O)C3CC3)ccc2Cl)C2CC2)cc1)c1ccccc1`, 4.54.
Turning to `CNCc1ccc(Cl)c(CN(C(=O)[C@@H]2CNCC(=O)N2c2cnc(OCCCOCc3ccccc3OC)nc2)C2CC2)c1`, the logP worked out at 2.87.
In the case of `CN(Cc1ccccc1)C(=O)[C@H]1CNCC(=O)N1c1ccc(CCCOc2cccc(Cl)c2)cc1` it was 4.66.
In the case of `CCNCCc1ccc(Cl)c(CN(C(=O)[C@H]2CNCC(=O)N2c2ccc(COC(=O)c3ccccc3)cc2)C2CC2)c1` it was 4.98.
In the case of `Cc1cc(Cl)c(OCCOc2ccc(N3C(=O)CNC[C@@H]3C(=O)N(Cc3cc(CCNCC(F)F)ccc3Cl)C3CC3)cc2)c(Cl)c1` it was 6.15; in that of `COC(=O)NCc1ccc(Cl)c(CN(C(=O)[C@H]2CNCC(=O)N2c2ccc(OCCCOCc3ccccc3OC)cc2)C2CC2)c1`, 4.81; in that of `O=C([C@H]1CNCC(=O)N1c1ccc(CCCOc2cccc(Cl)c2)cc1)N(Cc1cc(CCNC2CC2)ccc1Cl)C1CC1`, 6.46.
The molecule `O=C(OCc1ccc(N2C(=O)CNC[C@@H]2C(=O)N(Cc2cccc(Cl)c2)C2CC2)cc1)c1ccccc1` displayed a logP of 4.77.
For `CC(=O)NCc1ccc(Cl)c(CN(C(=O)[C@H]2CNCC(=O)N2c2ccc(OCCOc3c(Cl)cc(C)cc3Cl)cc2)C2CC2)c1` the value was 5.29; for `COc1ccccc1COCCCOc1ccc(N2C(=O)CNC[C@@H]2C(=O)NCc2ccccc2Cl)cc1`, 4.21.
In the case of `CNC(=O)OCCc1ccc(Cl)c(CN(C(=O)[C@H]2CNCC(=O)N2c2ccc(OCCCOCc3ccccc3)cc2)C2CC2)c1` it was 4.94.
For `CCNC(=O)Cc1ccc(Cl)c(CN(C(=O)[C@H]2CNCC(=O)N2c2ccc(OCCCOCc3ccccc3)cc2)C2CC2)c1` the value was 4.87.
In the case of `Cc1cc(Cl)c(OCCOc2ccc(N3C(=O)CNC[C@@H]3C(=O)NCc3ccccc3Cl)cn2)c(Cl)c1`, the logP was determined as 4.15.
In the case of `COc1ccccc1COCCCOc1ncc(N2C(=O)CNC[C@@H]2C(=O)N(Cc2cc(CNC(=O)CC(F)(F)F)ccc2Cl)C2CC2)cn1` it was 3.23; in that of `CCC(=O)NCc1ccc(Cl)c(CN(C(=O)[C@H]2CNCC(=O)N2c2ccc(CCCOc3c(F)ccc(F)c3F)cc2)C2CC2)c1`, 5.67; in that of `CC(C)(C)OCC(=O)NCCc1ccc(Cl)c(CN(C(=O)[C@H]2CNCC(=O)N2c2ccc(CCCOc3cccc(Cl)c3)cc2)C2CC2)c1`, 6.46.
For `CCNCCc1ccc(Cl)c(CN(C(=O)[C@H]2CNCC(=O)N2c2ccc(OCCOc3c(Cl)cc(C)cc3Cl)nc2)C2CC2)c1` the value was 5.25; for `COCCCc1ccc(Cl)c(CN(C(=O)[C@H]2CNCC(=O)N2c2ccc(CCCOc3cccc(Cl)c3)cc2)C2CC2)c1`, 6.56; for `Cc1cccc(CN(C(=O)[C@H]2CNCC(=O)N2c2ccc(CCCOc3cccc(Cl)c3)cc2)C2CC2)c1C`, 5.91.
For `Cc1cc(Cl)c(OCCOc2ccc(N3C(=O)CNC[C@@H]3C(=O)N(Cc3cc(CCNC4CC4)ccc3Cl)C3CC3)cn2)c(Cl)c1` the value was 5.56; for `COC(=O)NCCc1ccc(Cl)c(CN(C(=O)[C@H]2CNCC(=O)N2c2ccc(CCCOc3cccc(Cl)c3)cc2)C2CC2)c1`, 5.74.
`O=C([C@H]1CNCC(=O)N1c1ccc(CCCOc2cccc(Cl)c2)cc1)N(Cc1cc(CCNCC(F)F)ccc1Cl)C1CC1` displayed a logP of 6.22.
For `CCC(=O)NCc1ccc(Cl)c(CN(C(=O)[C@H]2CNCC(=O)N2c2ccc(CCCOc3cccc(Cl)c3)cc2)C2CC2)c1` the value was 5.84; for `COCCCc1cc(CN(C(=O)[C@H]2CNCC(=O)N2c2ccc(OCCCOCc3ccccc3OC)cc2)C2CC2)c(Cl)cn1`, 4.44; for `CNC(=O)OCc1ccc(Cl)c(CN(C(=O)[C@H]2CNCC(=O)N2c2ccc(COC(=O)c3ccccc3)cc2)C2CC2)c1`, 4.48.
For `CN(CCc1ccccc1)C(=O)[C@H]1CNCC(=O)N1c1ccc(CCCOc2cccc(Cl)c2)cc1`, the logP stood at 4.75.
For `Cc1cccc(CN(C(=O)[C@H]2CNCC(=O)N2c2ccc(COC(=O)c3ccccc3)cc2)C2CC2)c1C` the value was 4.73; for `COC(=O)NCCc1ccc(Cl)c(CN(C(=O)[C@H]2CNCC(=O)N2c2ccc(OCCOc3c(Cl)cc(C)cc3Cl)cc2)C2CC2)c1`, 5.67; for `CC(=O)NCCc1ccc(Cl)c(CN(C(=O)[C@H]2CNCC(=O)N2c2ccc(OCCOc3c(Cl)cc(C)cc3Cl)nc2)C2CC2)c1`, 4.55.
In the case of `O=C(NCc1ccccc1Cl)[C@H]1CNCC(=O)N1c1ccc(CCCOc2c(F)ccc(F)c2F)cc1`, the logP was found to be 4.88.
Take `COc1ccccc1COCCCOc1ncc(N2C(=O)CNC[C@@H]2C(=O)NCc2ccccc2)cn1`: the logP was found to be 1.61.
For `CNCCc1ccc(Cl)c(CN(C(=O)[C@H]2CNCC(=O)N2c2ccc(OCCOc3c(Cl)cc(C)cc3Cl)cc2)C2CC2)c1` the value was 5.74; for `CNCc1ccc(Cl)c(CN(C(=O)[C@H]2CNCC(=O)N2c2ccc(OCCCOCc3ccccc3)cc2)C2CC2)c1`, 4.92.
In turn, `CNC(=O)OCCc1ccc(Cl)c(CN(C(=O)[C@H]2CNCC(=O)N2c2ccc(CCCOc3cccc(Cl)c3)cc2)C2CC2)c1` registered a logP of 5.74.
For `CCNCc1ccc(Cl)c(CN(C(=O)[C@H]2CNCC(=O)N2c2ccc(OCCCOCc3ccccc3OC)cc2)C2CC2)c1` the value was 5.22; for `CNCc1ccc(Cl)c(CN(C(=O)[C@H]2CNCC(=O)N2c2ccc(OCCOc3c(Cl)cc(C)cc3Cl)cc2)C2CC2)c1`, 5.65; for `O=C(Cc1ccc(Cl)c(CN(C(=O)[C@H]2CNCC(=O)N2c2ccc(CCCOc3c(F)ccc(F)c3F)cc2)C2CC2)c1)NC1CC1`, 5.8.
`O=C([C@H]1CNCC(=O)N1c1ccc(CCCOc2cccc(Cl)c2)cc1)N(Cc1cccc(Cl)c1Cl)C1CC1` showed a logP of 6.49.
In the case of `CNCc1ccc(Cl)c(CN(C(=O)[C@H]2CNCC(=O)N2c2ccc(CCCOc3cccc(Cl)c3)cc2)C2CC2)c1` it was 5.72; in that of `CNCc1ccc(Cl)c(CN(C(=O)[C@H]2CNCC(=O)N2c2ccc(OCCOc3c(Cl)cc(C)cc3Cl)nc2)C2CC2)c1`, 4.82; in that of `O=C([C@H]1CNCC(=O)N1c1ccc(OCCCOCc2ccccc2)cc1)N(Cc1ccc(Cl)cc1)C1CC1`, 5.11.
For `COc1ccccc1COCCCOc1ncc(N2C(=O)CNC[C@@H]2C(=O)N(C)Cc2ccccc2Cl)cn1` the value was 2.4.

What is called logP is the decadic logarithm of the partition coefficient of the neutral form, usually between octanol and water. Low readings indicate a more hydrophilic compound, high ones a more lipophilic compound.
